Test results as given in US10246462B2, “Chemokine receptor modulators and uses thereof” (FLX Bio, Inc., priority 2016, dated 2019).
Counter-ions that a name gives are not always drawn. Like-named read-outs stand apart in the source and are kept apart here.

Biological target: CCR4 (Homo sapiens (Human), UniProt P51679)
Test: Calcium mobilization (Ca Flux) assay
Assay type: cell-based
Description: Calcium Mobilization Assay. Calcium mobilization experiments may be performed by labeling the human T-cell line CEM with […] dye (45 min at room temperature), washing with PBS, and re-suspending into flux buffer (HBSS with 1% FBS).

Chain of CCR4 (P51679 whole entry): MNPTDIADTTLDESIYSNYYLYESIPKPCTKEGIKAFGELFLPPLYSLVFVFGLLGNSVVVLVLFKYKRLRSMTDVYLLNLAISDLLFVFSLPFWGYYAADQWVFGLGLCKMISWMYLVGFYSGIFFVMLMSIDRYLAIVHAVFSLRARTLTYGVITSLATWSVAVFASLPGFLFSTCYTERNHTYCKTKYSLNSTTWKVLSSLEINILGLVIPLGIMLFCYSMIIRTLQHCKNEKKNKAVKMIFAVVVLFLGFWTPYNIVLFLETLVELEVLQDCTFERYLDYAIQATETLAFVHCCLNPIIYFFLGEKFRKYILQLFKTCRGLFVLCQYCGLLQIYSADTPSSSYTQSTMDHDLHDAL

`C[C@H](c1ccc(Cl)cc1Cl)n1nc(C#N)c2ncc(N3CC[C@@H](N4CCCCC4)[C@@H](C)C3)nc21` [Example 24, 1-((R)-1-(2,4-Dichlorophenyl)ethyl)-6-((3′S,4′R)-3′-methyl-[1,4′-bipiperidin]-1′-yl)-1H-pyrazolo[3,4-b]pyrazine-3-carbonitrile hydrochloride] gave an IC50 of over 500 nM.
In the case of `Cc1nn([C@H](C)c2ccc(Cl)cc2Cl)c2nc(N3CCC(C4CCCNC4)C(C)C3)cnc12` (stereo partly drawn) [Example 66, 1-((R)-1-(2,4-Dichlorophenyl)ethyl)-3-methyl-6-(3′-methyl-[3,4′-bipiperidin]-1′-yl)-1H-pyrazolo[3,4-b]pyrazine hydrochloride], the IC50 is reported as 100 to 500 nM.
Work on `Cc1nn([C@H](C)c2ccc(Cl)cc2Cl)c2nc(N3CC[C@H](N4CCC[C@@H]4C)[C@H](C)C3)cnc12` [Example 22, 1-((R)-1-(2,4-Dichlorophenyl)ethyl)-3-methyl-6-((3R,4S)-3-methyl-4-((S)-2-methylpyrrolidin-1-yl)piperidin-1-yl)-1H-pyrazolo[3,4-b]pyrazine hydrochloride] yielded an IC50 of 100 to 500 nM.
For `COC(C[C@@H]1CCCN1C1CCN(c2cnc3c(C)nn([C@H](C)c4ccc(Cl)cc4Cl)c3n2)CC1C)C(=O)O` (mixture of isomers) [Example 55, 3-((2S)-1-(1-(1-((R)-1-(2,4-Dichlorophenyl)ethyl)-3-methyl-1H-pyrazolo[3,4-b]pyrazin-6-yl)-3-methylpiperidin-4-yl)pyrrolidin-2-yl)-2-methoxypropanoic acid 2,2,2-trifluoroacetae], the IC50 was over 500 nM.
In the case of `Cc1nn([C@H](C)c2ccc(Cl)cc2Cl)c2nc(N3CCC(N4CCC[C@H]4CC(F)C(=O)O)C(C)C3)cnc12` (single isomer, unassigned) [Example 57], the IC50 is reported as over 500 nM.
Work on `C[C@@H]1CN(c2cnc3c(C#N)nn([C@H](C)c4ccc(Cl)cc4Cl)c3n2)CC[C@@H]1N1CCC[C@H]1C(=O)O` [Example 35, ((3R,4S)-1-(3-Cyano-1-((R)-1-(2,4-dichlorophenyl)ethyl)-1H-pyrazolo[3,4-b]pyrazin-6-yl)-3-methylpiperidin-4-yl)-L-proline 2,2,2-trifluoroacetate] yielded an IC50 of 100 to 500 nM.
`C[C@@H]1C=C(c2cnc3c(C#N)nn([C@H](C)c4ccc(Cl)cc4Cl)c3n2)CC[C@@H]1N1CCC[C@H]1CO` [Example 69, 1-((R)-1-(2,4-Dichlorophenyl)ethyl)-6-((3R,4S)-4-((S)-2-(hydroxymethyl)pyrrolidin-1-yl)-3-methylcyclohex-1-en-1-yl)-1H-pyrazolo[3,4-b]pyrazine-3-carbonitrile hydrochloride] showed an IC50 of 100 to 500 nM.
Work on `Cc1nn([C@H](C)c2ccc(Cl)cc2Cl)c2nc(N3CCC(N4CCC[C@H]4CCC(=O)O)CC3)cnc12` [Example 51, 3-((S)-1-(1-(1-((R)-1-(2,4-Dichlorophenyl)ethyl)-3-methyl-1H-pyrazolo[3,4-b]pyrazin-6-yl)piperidin-4-yl)pyrrolidin-2-yl)propanoic acid 2,2,2-trifluoroacetate] yielded an IC50 of 100 to 500 nM.
For `CC1CN(c2cnc3cnn(C(C)c4ccc(Cl)cc4Cl)c3n2)CCC1N1CCCCC1` (centres unmarked) [Example 8, 1-(1-(2,4-Dichlorophenyl)ethyl)-6-(3′-methyl-[1,4′-bipiperidin]-1′-yl)-1H-pyrazolo[3,4-b]pyrazine hydrochloride], the IC50 was 100 to 500 nM.
For `Cc1nn([C@H](C)c2ccc(Cl)cc2Cl)c2nc(N3CCC(N4CCCC(CCC(=O)O)C4)C(C)C3)cnc12` (mixture of isomers) [Example 41, 3-(1′-(1-((R)-1-(2,4-dichlorophenyl)ethyl)-3-methyl-1H-pyrazolo[3,4-b]pyrazin-6-yl)-3′-methyl-[1,4′-bipiperidin]-3-yl)propanoic acid], the IC50 was over 500 nM.
For `Cc1nn([C@H](C)c2ccc(Cl)cc2Cl)c2nc(C3=CCC(N4CCC[C@H]4C(=O)O)C(C)C3)cnc12` (stereo partly drawn) [Example 70, (4-(1-((R)-1-(2,4-Dichlorophenyl)ethyl)-3-methyl-1H-pyrazolo[3,4-b]pyrazin-6-yl)-6-methylcyclohex-3-en-1-yl)-L-proline trifluoroacetate], the IC50 was 100 to 500 nM.
`C[C@@H]1CC(c2cnc3c(C#N)nn([C@H](C)c4ccc(Cl)cc4Cl)c3n2)=CC[C@@H]1N1CCC[C@H]1CNS(C)(=O)=O` [Example 82, N—(((S)-1-((1S,6R)-4-(3-Cyano-1-((R)-1-(2,4-dichlorophenyl)ethyl)-1H-pyrazolo[3,4-b]pyrazin-6-yl)-6-methylcyclohex-3-en-1-yl)pyrrolidin-2-yl)methyl)methanesulfonamide hydrochloride] gave an IC50 of 100 to 500 nM.
`Cc1nn([C@H](C)c2ccc(Cl)cc2Cl)c2nc(C3=CCC(N4CCC[C@H]4CO)CC3)cnc12` (stereo partly drawn) [Example 68, ((2S)-1-(4-(1-((R)-1-(2,4-Dichlorophenyl)ethyl)-3-methyl-1H-pyrazolo[3,4-b]pyrazin-6-yl)cyclohex-3-en-1-yl)pyrrolidin-2-yl)methanol] gave an IC50 of 100 to 500 nM.
Work on `CNC(=O)[C@@H]1CCCN1[C@H]1CC=C(c2cnc3c(C#N)nn([C@H](C)c4ccc(Cl)cc4Cl)c3n2)C[C@H]1C` [Example 91, (S)-1-((1S,6R)-4-(3-Cyano-1-((R)-1-(2,4-dichlorophenyl)ethyl)-1H-pyrazolo[3,4-b]pyrazin-6-yl)-6-methylcyclohex-3-en-1-yl)-N-methylpyrrolidine-2-carboxamide trifluoroacetate] yielded an IC50 of 100 to 500 nM.
Compound `CC1C=C(c2cnc3c(C#N)nn([C@H](C)c4ccc(Cl)cc4Cl)c3n2)CCC1N1CCC[C@H]1CCC(=O)O` (stereo partly drawn) [Example 73, 3-((2S)-1-(4-(3-Cyano-1-((R)-1-(2,4-dichlorophenyl)ethyl)-1H-pyrazolo[3,4-b]pyrazin-6-yl)-2-methylcyclohex-3-en-1-yl)pyrrolidin-2-yl)propanoic acid 2,2,2-trifluoroacetate] has an IC50 of 100 to 500 nM.
Work on `CC1CC(c2cnc3c(C#N)nn([C@H](C)c4ccc(Cl)cc4Cl)c3n2)=CCC1N1CCC[C@H]1CCC(=O)O` (mixture of isomers) [Example 74, 3-((2S)-1-(4-(3-Cyano-1-((R)-1-(2,4-dichlorophenyl)ethyl)-1H-pyrazolo[3,4-b]pyrazin-6-yl)-6-methylcyclohex-3-en-1-yl)pyrrolidin-2-yl)propanoic acid 2,2,2-trifluoroacetate] yielded an IC50 of under 100 nM.
`C[C@H](c1ccc(Cl)cc1Cl)n1nc(C#N)c2ncc(N3CCC(N4CCCC(CO)C4)CC3)nc21` (stereo partly drawn) [Example 62, 1-((R)-1-(2,4-Dichlorophenyl)ethyl)-6-(3-(hydroxymethyl)-[1,4′-bipiperidin]-1′-yl)-1H-pyrazolo[3,4-b]pyrazine-3-carbonitrile hydrochloride] showed an IC50 of 100 to 500 nM.
Work on `C[C@@H]1CN(c2cnc3c(C#N)nn([C@H](C)c4ccc(Cl)cc4Cl)c3n2)CC[C@@H]1N1CCCCC1` [Example 23, 1-((R)-1-(2,4-Dichlorophenyl)ethyl)-6-((3′R,4′S)-3′-methyl-[1,4′-bipiperidin]-1′-yl)-1H-pyrazolo[3,4-b]pyrazine-3-carbonitrile hydrochloride] yielded an IC50 of under 100 nM.
In the case of `CCOC(=O)c1nn(C(C)c2ccc(Cl)cc2Cl)c2nc(N3CCC(N4CCCCC4)C(C)C3)cnc12` (centres unmarked) [Example 2, Ethyl 1-(1-(2,4-dichlorophenyl)ethyl)-6-(3′-methyl-[1,4′-bipiperidin]-1′-yl)-1H-pyrazolo[3,4-b]pyrazine-3-carboxylate hydrochloride], the IC50 is reported as 100 to 500 nM.
With `CCC1CN(c2cnc3cnn(C(C)c4ccc(Cl)cc4Cl)c3n2)CCC1N1CCCCC1` (centres unmarked) [Example 9, 1-(1-(2,4-Dichlorophenyl)ethyl)-6-(3′-ethyl-[1,4′-bipiperidin]-1′-yl)-1H-pyrazolo[3,4-b]pyrazine hydrochloride] the IC50 was 100 to 500 nM.
`CC1CN(c2cnc3c(C(N)=O)nn([C@H](C)c4ccc(Cl)cc4Cl)c3n2)CCC1N1CCCCC1` (stereo partly drawn) [Example 5, 1-((R)-1-(2,4-Dichlorophenyl)ethyl)-6-(3′-methyl-[1,4′-bipiperidin]-1′-yl)-1H-pyrazolo[3,4-b]pyrazine-3-carboxamide 2,2,2-trifluoroacetate] showed an IC50 of 100 to 500 nM.
`Cc1nn([C@H](C)c2ccc(Cl)cc2Cl)c2nc(N3CC(C)C(N4CCCC4)C[C@@H]3C)cnc12` (stereo partly drawn) [Example 18, 1-((R)-1-(2,4-Dichlorophenyl)ethyl)-6-((2S)-2,5-dimethyl-4-(pyrrolidin-1-yl)piperidin-1-yl)-3-methyl-1H-pyrazolo[3,4-b]pyrazine hydrochloride] showed an IC50 of 100 to 500 nM.
Work on `Cc1nn([C@H](C)c2ccc(Cl)cc2Cl)c2nc(C3=CCC(N4CCC[C@H]4CCC(=O)O)C(C)C3)cnc12` (stereo in doubt) [Example 72, 3-((S)-1-((1R,6S)-4-(1-((R)-1-(2,4-Dichlorophenyl)ethyl)-3-methyl-1H-pyrazolo[3,4-b]pyrazin-6-yl)-6-methylcyclohex-3-en-1-yl)pyrrolidin-2-yl)propanoic acid hydrochloride] yielded an IC50 (hydrochloride) of over 500 nM.
`Cc1nn([C@H](C)c2ccc(Cl)cc2Cl)c2nc(N3CC[C@H](N4C[C@H](O)C[C@H]4C(=O)O)[C@H](C)C3)cnc12` [Example 37, (2S,4R)-1-((3R,4S)-1-(1-((R)-1-(2,4-Dichlorophenyl)ethyl)-3-methyl-1H-pyrazolo[3,4-b]pyrazin-6-yl)-3-methylpiperidin-4-yl)-4-hydroxypyrrolidine-2-carboxylic acid 2,2,2-trifluoroacetate] gave an IC50 of over 500 nM.
In the case of `Cc1nn([C@H](C)c2ccc(Cl)cc2Cl)c2nc(N3CC[C@H](N4CCCC4)[C@H](C)C3)cnc12` [Example 12, 1-((R)-1-(2,4-Dichlorophenyl)ethyl)-3-methyl-6-((3R,4S)-3-methyl-4-(pyrrolidin-1-yl)piperidin-1-yl)-1H-pyrazolo[3,4-b]pyrazine hydrochloride], the IC50 is reported as under 100 nM.
`Cc1nn([C@H](C)c2ccc(Cl)cc2Cl)c2nc(N3CC[C@H](N4CCC[C@H]4C)[C@H](C(=O)O)C3)cnc12` [Example 30, (3R,4S)-1-(1-((R)-1-(2,4-Dichlorophenyl)ethyl)-3-methyl-1H-pyrazolo[3,4-b]pyrazin-6-yl)-4-((R)-2-methylpyrrolidin-1-yl)piperidine-3-carboxylic acid hydrochloride] gave an IC50 of 100 to 500 nM.
